# Measured values published in patent US10918891B2, “Cosmetic treatment method for the skin” (SYNTIVIA, priority 2016, dated 2021).
# Marks after values point to notes of the source that are not given here.
# Tested on: NHEK cells
# Test: DNA double-strand breaks (γ-H2AX) induced by cigarette extract in NHEK
# Type: cell-based, human
# Settings: (Ia) 10 ppm pretreatment 24 h and treatment 24 h, cigarette extract 1/50, Control 10346, Cigarette extract 13269
# Description: The cells used for this example are normal human Fibroblasts (NHDF) and normal human epidermal Keratinocytes (NHEK).
# The cells are cultured at the concentration of 3000 cells per well of 96-well plates in the presence of standard culture medium for NHDF or NHEK (for 24 hours, 37° C., 5% CO2).
# After pretreatment of the cells with the compound (Ia) at 10 ppm for 24 hours, the cells are treated with the cigarette extract diluted to 1/50° with or without compound (Ia) at 10 ppm for 24 hours. […].
# After washing, the samples are then placed in the presence of DAPI for 10 min in order to mark the nuclei, then rinsed once again. The marked proteins are observed and quantified with an automated fluorescence microscope (ArrayScan® (Cellomics®)). The cells treated by the compound (Ia) are then compared to the untreated cells or to the cells only exposed to the cigarette extract.
compound,measurement,value
Cc1ncc(CO)c(CNC(=O)/C=C/c2ccc(O)c(O)c2)c1O [Compound (Ia)],Double-strand breaks of the DNA for NHEK (AU),11193* AU
